# B1: DDd-CasE: fusion protein of DDd domain and CasE, nucleotide sequence SEQ ID NO: 6 (protein)
# chain: MYLSKIIIARAWSRDLYQLHQELWHLFPNRPDAARDFLFHVEKRNTPEGCHVLLQSAQMPVSTAVATVIKTKQVEFQLQVGVPLYFRLRANPIKTILDNQKRLDSKGNIKRCRVPLIKEAEQIAWLQRKLGNAARVEDVHPISERPQYFSGEGKNGKIQTVCFEGVLTINDAPALIDLLQQGIGPAKSMGCGLLSLAPLMISLIAALAVDYVIGMENAMPWNLPADLAWFKRNTLNKPVIMGRHTWESIGRPLPGRKNIILSSQPSTDDRVTWVKSVDEAIAACGDVPEIMVIGGGRVIEQFLPKAQKLYLTHIDAEVEGDTHFPDYEPDDWESVFSEFHDADAQNSHSYCFEILERR
# B2: DDe-DDe-Csy4: fusion protein of two DDe domains and Csy4, nucleotide sequence SEQ ID NO: 5 (protein)
# chain: MSLALSLTADQMVSALLDAEPPILYSEYDPTRPFSEASMMGLLTNLADRELVHMINWAKRVPGFVDLALHDQVHLLECAWMEILMIGLVWRSMEHPGKLLFAPNLLLDRNQGKCVEGGVEIFDMLLATSSRFRMMNLQGEEFVCLKSIILLNSGVYTFLSSTLKSLEEKDHIHRVLDKITDTLIHLMAKAGLTLQQQHQRLAQLLLILSHIRHMSSKRMEHLYSMKCKNVVPLSDLLLEMLDAHRLMSLALSLTADQMVSALLDAEPPILYSEYDPTRPFSEASMMGLLTNLADRELVHMINWAKRVPGFVDLALHDQVHLLECAWMEILMIGLVWRSMEHPGKLLFAPNLLLDRNQGKCVEGGVEIFDMLLATSSRFRMMNLQGEEFVCLKSIILLNSGVYTFLSSTLKSLEEKDHIHRVLDKITDTLIHLMAKAGLTLQQQHQRLAQLLLILSHIRHMSSKRMEHLYSMKCKNVVPLSDLLLEMLDAHRLMDHYLDIRLRPDPEFPPAQLMSVLFGKLHQALVAQGGDRIGVSFPDLDESRSRLGERLRIHASADDLRALLARPWLEGLRDHLQFGEPAVVPHPTPYRQVSRVQAKSNPERLRRRLMRRHDLSEEEARKRIPDTVARALDLPFVTLRSQSTGQHFRLFIRHGPLQVTAEEGGFTCYGLSKGGFVPWF
# Legend:
# [1] = test system: engineered bi-stable toggle switch (CasE-PEST, Csy4-PEST, DDd-CasE, DDe-DDe-Csy4) in HEK293 cells; experiment: Toggle switch with DDd-CasE and DDe-DDe-Csy4 in transfected HEK293 cells, small-molecule control, flow cytometry of mKO2/eYFP; type: cell-based, human
# Procedure: Output fluorescent protein genes may also contain PERSIST activation domains to decrease expression in the OFF state. […] Further, HEK293 cells were transfected with CasE-PEST, Csy4-PEST, DDd-CasE and DDe-DDe-Csy4 transiently and cultured in the absence of small molecule for 24 hours.
# [2] = test system: CasE target hairpin containing a theophylline responsive aptamer; experiment: Proof of concept: CasE target hairpin with theophylline responsive aptamer 5' of eYFP, co-delivered with CasE; type: cell-based, human; conditions: HEK293 cells, versus absence of theophylline
# Text: Alternatively, the engineered bi-stable toggle switch described in Example 1 can be designed to be able to respond to different small molecules to switch the system between different states. In this system, each of the endoRNAse target sites can include a small molecule-response aptamers. Binding of the small molecule to the aptamer stabilizes a secondary structure in the aptamer RNA that blocks the endoRNAse from cleaving its recognition hairpin. As illustrated by FIG. 4A, the CRISPR-endoRNAse recognition hairpin contains an aptamer sequence capable of binding to a small molecule. In the absence of the small molecule, the endoRNAse is able to cleave the recognition hairpin; however, the addition of the small molecule to the system induces a conformational change of the endoRNAse target hairpin, and such conformational change renders the endoRNAse incapable of binding and cleaving its target hairpin. […] In this experiment, a CasE target hairpin containing a theophylline responsive aptamer was placed 5′ of an eYFP coding sequence in an eYFP-expressing construct. This eYFP-expressing construct was co-delivered to HEK293 cells with another construct expressing CasE.
# [3] = test system: engineered bi-stable motif; experiment: Screening of DDd-CasE fusion proteins on the bi-stable motif (polytransfection, eYFP/TagBFP); type: cell-based; conditions: hEF1α promoter, among CasE-DDd fusions screened
# Procedure: Further, fusion proteins between CasE and one or more DDd domains were screened similarly as described above. In this experiment, only hEF1α promoter was tested. Each of the construct and the engineered bi-stable toggle switch described in Example 1 were delivered to the cells by polytransfection. The output molecules were eYFP and TagBFP. The system was designed such that Csy4 represses eYFP and CasE represses TagBFP. A cell in the CasE-high state expressed eYFP and a cell in the Csy4-high state expresses TagBFP. The ratio between CasE to Csy4 was set at 1.6 times as much Csy4 as CasE, biasing the system towards a Csy4-high state in the absence of additional proteins.
# [4] = test system: engineered bi-stable motif; experiment: Screening of promoter and degradation domain combinations with Csy4 on the bi-stable motif (polytransfection, eYFP/TagBFP); type: cell-based
# Procedure: Csy4 was first selected to be fused with either one copy or two copies of DDd domain or DDe domain respectively: DDe-Csy4, DDe-DDe-Csy4, DDd-Csy4, and DDd-DDd-Csy4. Various promoters (e.g., phEF1α, pUbc, and pPh1f) were used to drive the expression of the Csy4 or Csy4-degradation domain fusion proteins. pPh1f promoters were tested in the presence of Gal4-NLS-VP64. As a result, the following constructs were generated: phEF1α-Csy4, pUbc-DDd-Csy4, pUbc-DDd-DDd-Csy4, pPh1f-DDd-DDd-Csy4, pPh1f-DDd-Csy4-PEST, pPh1f-DDe-Csy4, pUbc-DDe-Csy4, pUbc-DDe-Csy4-PEST, pPh1f-DDe-DDe-Csy4, pUbc-DDe-DDe-Csy4, and pUbc-DDe-DDe-Csy4-PEST. Each of the constructs and the engineered bi-stable toggle switch described in Example 1 were delivered to the cells by polytransfection (Gam et al, A ‘poly-transfection’ method for rapid, one-pot characterization and optimization of genetic systems, Nucleic Acids Research, Volume 47, Issue 18, 10 Oct. 2019, Page e106). The output molecules were eYFP and TagBFP. The system was designed such that Csy4 represses eYFP and CasE represses TagBFP. A cell in the CasE-high state expressed eYFP and a cell in the Csy4-high state expresses TagBFP. The ratio between CasE to Csy4 was set at 6.7 times as much CasE as Csy4, biasing the system towards a CasE-high state in the absence of additional proteins. […]
molecule,measurement,setting,value
"COc1cc(Cc2cnc(N)nc2N)cc(OC)c1OC [TMP, trimethoprim]",reporter expression after small molecule addition,"[1]; 10 μM added at 24 hrs and maintained for 48 hrs, roughly equal mKO2 and eYFP before addition",higher frequencies of eYFP expression than mKO2 expression
4-hydroxytamoxifen [4-OHT],state the bi-stable toggle switch stabilizes on,[1]; small molecule in the system for 24 hours,Csy4-high/CasE-low state (mKO2-high/eYFP-low)
Cn1c(=O)c2[nH]cnc2n(C)c1=O [theophylline],eYFP expression in the presence of theophylline (repression by CasE lifted),[2],two-folds increase
B1,being degraded in the absence of TMP and cleaving RNA in the presence of TMP,[3],better at (i) being degraded in the absence of TMP; and (ii) cleaving RNA efficiently in the presence of TMP
B2,capability of (i) being degraded in the absence of 4-OHT and (ii) cleaving RNA efficiently in the presence of 4-OHT,[4]; among Csy4 fusion constructs screened,best capability
same,fraction of cells in the TagBFP high state with versus without 4-OHT,"[4]; regardless of promoter, especially in higher ratio bins",higher fraction of cells in the TagBFP high state when 4-OHT is present than without
